Columns and labels:
PDE10A1 (AB 020593) = biological target: T1, PDE10A1 (AB 020593) (Homo sapiens, UniProt Q9Y233); assay: Inhibition of recombinant PDE10A (baculovirus/SF21 system); format: biochemical; settings: recombinant cytosolic PDE10A, 0.1 μM [3H]-cAMP, 37° C., 30 minutes, SPA; read-out: PDE10A IC50
T1 construct: made in house; host or cells: baculovirus / SF21 insect cells (gene synthesized by Entelechon GmbH)
Method: The DNA of PDE10A1 (AB 020593, 2340 bp) was synthesized and cloned into the vector pCR4.TOPO (Entelechon GmbH, Regensburg, Germany). The gene was than inserted into a baculovirus vector, ligated with the baculovirus DNA. The enzyme-protein was expressed in SF21-cells. The enzyme was isolated from these cells by harvesting the cells by an centrifugation at 500 g to collect the cells.
The cells were resuspended in 50 mM Tris-HCl/1 mM EDTA/250 mM Sucrose buffer, pH=7.4 (Sigma, Deisenhofen, Germany; Merck, Darmstadt, Germany) and lysed by sonification of the cells (three times for 15 seconds, Labsonic U, Fa. Braun, Degersheim, Switzerland, level “high”). The cytosolic PDE10A was obtained by a centrifugation at 48,000 g for 1 h in the supernatant and stored at −70° C.
PDE activity was determined in a one step procedure in microtiter plates. The reaction mixture of 100 μl contained 50 mM Tris-HCl/5 mM MgCl2 buffer (pH=7.4, Sigma, Deisenhofen, Germany; Merck, Darmstadt, Germany) 0.1 μM [3H]-cAMP (Amersham, Buckinghamshire, UK) and the enzyme. Non-specific enzyme activity was determined without the enzyme. The reaction was initiated by addition of the substrate solution and was carried out at 37° C. for 30 minutes. Enzymatic activity then was stopped by addition of 25 μl Ysi-SPA-beads (Amersham-Pharmacia). One h later the mixture was measured in a liquid scintillation counter for microtiter plates (Microbeta Trilux). The Biomek 2000 (Beckman) was used routinely for pipetting of the incubation mixture. The optimal amount of enzyme in the assay has been determined and optimized for each enzyme preparation separately before using the enzyme in compound testing. For determination of IC50 values the Hill-plot, 2-parameter-model, was used.

PDE2A (NM002599) = biological target: T2, PDE2A (NM002599) (Homo sapiens, UniProt O00408); assay: Inhibition of recombinant PDE2A (expressed in baculovirus/SF21-cells); format: biochemical; settings: recombinant PDE2A, 0.5 μM [3H]-cAMP, 1000 nM cGMP, 37° C., 30 minutes, SPA; read-out: PDE2A IC50
T2 construct: made in house; host or cells: baculovirus / SF21 insect cells
Method: PDE2A (NM002599) was cloned and the gene was inserted in the baculovirus and the enzyme-protein expressed in SF21-cells. The enzyme was isolated from these cells by harvesting the cells by an centrifugation at 200 g to collect the cells. The cells were resuspended in 50 mM Tris-HCl/5 mM MgCl2 buffer (pH=7.4) (Sigma, Deisenhofen, Germany; Merck, Darmstadt, Germany) and lysed by a sonication of the cells (three times for 15 seconds, Labsonic U, Fa. Braun, Degersheim, Switzerland, level “high”). The membrane fraction of PDE2A was obtained by a centrifugation at 48 000 g for 1 h, resuspended in buffer and stored at −70° C.
PDE2A activity was determined in a one step procedure in microtiterplates. The reaction mixture of 100 μl contained 50 mM Tris-HCl/5 mM MgCl2 buffer (pH=7.4) (Sigma, Deisenhofen, Germany; Merck, Darmstadt, Germany), 0.5 μM [3H]-cAMP (Amersham, Buckinghamshire, UK), 1000 nM cGMP and the enzyme. Non-specific enzyme activity was tested in the absence of cGMP. The reaction was initiated by addition of the substrate solution and was carried out at 37° C. for 30 minutes. Enzymatic activity then was stopped by addition of 25 μl SPA-beads (Amersham-Pharmacia). One hour later the mixture was measured in a liquid scintillation counter for microtiterplates (Microbeta Trilux). For pipetting of the incubation mixture the robot Biomek (Fa. Beckman) was routinely used.
The optimal amount of enzyme in the assay has been determined and optimised for each enzyme preparation separately before using the enzyme in compound testing. For determination of IC50 values the Hill-plot, 2-parameter-model, was used.

T1 sequence (Q9Y233 other isoform, or with tags, fused parts or gaps): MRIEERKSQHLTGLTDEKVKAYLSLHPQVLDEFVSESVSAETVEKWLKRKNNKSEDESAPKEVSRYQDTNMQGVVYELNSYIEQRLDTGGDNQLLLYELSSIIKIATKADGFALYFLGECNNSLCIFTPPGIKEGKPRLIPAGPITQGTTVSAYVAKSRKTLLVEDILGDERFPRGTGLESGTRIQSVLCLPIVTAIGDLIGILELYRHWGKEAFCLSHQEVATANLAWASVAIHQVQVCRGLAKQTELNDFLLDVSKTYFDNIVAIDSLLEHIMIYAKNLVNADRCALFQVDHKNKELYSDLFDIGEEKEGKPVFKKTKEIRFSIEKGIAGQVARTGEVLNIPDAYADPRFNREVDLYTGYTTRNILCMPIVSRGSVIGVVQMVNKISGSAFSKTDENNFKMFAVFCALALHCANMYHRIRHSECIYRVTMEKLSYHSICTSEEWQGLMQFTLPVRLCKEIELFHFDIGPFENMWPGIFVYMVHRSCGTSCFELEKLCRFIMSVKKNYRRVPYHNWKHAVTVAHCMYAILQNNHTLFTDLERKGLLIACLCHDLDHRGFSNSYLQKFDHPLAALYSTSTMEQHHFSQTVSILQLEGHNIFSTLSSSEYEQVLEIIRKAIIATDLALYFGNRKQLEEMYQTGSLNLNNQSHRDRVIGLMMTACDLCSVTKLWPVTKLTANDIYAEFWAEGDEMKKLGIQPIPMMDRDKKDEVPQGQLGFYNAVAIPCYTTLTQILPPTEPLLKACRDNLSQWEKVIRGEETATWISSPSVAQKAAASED
T2 sequence (O00408 whole entry): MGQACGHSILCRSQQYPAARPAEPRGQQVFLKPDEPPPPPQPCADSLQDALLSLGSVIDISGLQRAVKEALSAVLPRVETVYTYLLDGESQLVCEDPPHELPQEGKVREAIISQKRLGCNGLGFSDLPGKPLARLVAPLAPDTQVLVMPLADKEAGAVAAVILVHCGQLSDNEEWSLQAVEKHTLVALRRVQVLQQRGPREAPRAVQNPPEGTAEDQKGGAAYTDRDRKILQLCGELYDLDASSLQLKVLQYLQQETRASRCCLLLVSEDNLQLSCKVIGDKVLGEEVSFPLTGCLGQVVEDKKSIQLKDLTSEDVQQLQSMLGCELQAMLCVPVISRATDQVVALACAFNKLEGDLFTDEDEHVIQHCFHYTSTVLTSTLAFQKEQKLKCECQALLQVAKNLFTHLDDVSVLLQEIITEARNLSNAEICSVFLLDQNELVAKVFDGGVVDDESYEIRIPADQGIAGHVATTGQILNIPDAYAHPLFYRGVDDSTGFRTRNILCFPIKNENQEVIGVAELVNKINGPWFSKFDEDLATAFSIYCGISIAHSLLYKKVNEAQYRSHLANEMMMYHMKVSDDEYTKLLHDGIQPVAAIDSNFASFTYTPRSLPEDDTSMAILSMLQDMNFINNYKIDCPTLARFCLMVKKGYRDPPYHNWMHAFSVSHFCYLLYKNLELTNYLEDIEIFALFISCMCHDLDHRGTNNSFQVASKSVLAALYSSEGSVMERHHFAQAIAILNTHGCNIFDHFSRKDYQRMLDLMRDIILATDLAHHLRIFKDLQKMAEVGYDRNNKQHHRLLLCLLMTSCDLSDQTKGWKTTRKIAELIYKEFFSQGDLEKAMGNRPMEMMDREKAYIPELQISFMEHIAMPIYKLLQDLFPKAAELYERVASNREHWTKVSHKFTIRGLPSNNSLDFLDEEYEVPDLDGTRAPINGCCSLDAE

Compound | IC50 (PDE10A1 (AB 020593)) [µM] | IC50 (PDE2A (NM002599)) [µM]
COc1ccc2nnc3c(C)nc(-c4cccnc4C)n3c2n1 [Example 50, 2-methoxy-7-methyl-9-(2-methylpyridin-3-yl)imidazo[5,1-c]pyrido[2,3-e][1,2,4]triazine] | 0.126 | 0.0159
COc1ccc2nnc3c(C)nc(-c4cnccc4C)n3c2n1 [Example 51, 2-methoxy-7-methyl-9-(4-methylpyridin-3-yl)imidazo[5,1-c]pyrido[2,3-e][1,2,4]triazine] | 0.388 | 0.142
COc1ccc2nnc3c(C)nc(-c4ccncc4OC)n3c2n1 [Example 52, 2-methoxy-9-(3-methoxypyridin-4-yl)-7-methylimidazo[5,1-c]pyrido[2,3-e][1,2,4]triazine] | 0.225 | 0.165
COc1ccc2nnc3c(C)nc(-c4cccnc4F)n3c2n1 [Example 53, 9-(2-fluoropyridin-3-yl)-2-methoxy-7-methylimidazo[5,1-c]pyrido[2,3-e][1,2,4]triazine] | 0.147 | 0.0296
COc1ccc2nnc3c(C)nc(-c4sc(C)nc4C)n3c2n1 [Example 54, 9-(2,4-dimethyl-1,3-thiazol-5-yl)-2-methoxy-7-methylimidazo[5,1-c]pyrido[2,3-e][1,2,4]triazine] | 0.0645 | 0.023
COc1ccc2nnc3c(C)nc(-c4cccnc4)n3c2n1 [Example 55, 2-methoxy-7-methyl-9-pyridin-3-ylimidazo[5,1-c]pyrido[2,3-e][1,2,4]triazine] | 0.682 | 0.144
COc1ccc2nnc3c(C)nc(-c4cccc(F)c4C)n3c2n1 [Example 56, 9-(3-fluoro-2-methylphenyl)-2-methoxy-7-methylimidazo[5,1-c]pyrido[2,3-e][1,2,4]triazine] | 0.0356 | 0.0213
COc1ccc2nnc3c(C)nc(-c4ccc(F)cc4C)n3c2n1 [Example 57, 9-(4-fluoro-2-methylphenyl)-2-methoxy-7-methylimidazo[5,1-c]pyrido[2,3-e][1,2,4]triazine] | 0.0644 | 0.0212
COc1cccc(-c2nc(C)c3nnc4ccc(OC)nc4n23)c1 [Example 58, 2-methoxy-9-(3-methoxyphenyl)-7-methylimidazo[5,1-c]pyrido[2,3-e][1,2,4]triazine] | 0.0377 | 0.0147
COc1ccc(Cl)c(-c2nc(C)c3nnc4ccc(OC)nc4n23)c1 [Example 59, 9-(2-chloro-5-methoxyphenyl)-2-methoxy-7-methylimidazo[5,1-c]pyrido[2,3-e][1,2,4]triazine] | 0.0409 | 0.0022
COc1ccc2nnc3c(C)nc(-c4cc(Cl)ccc4C)n3c2n1 [Example 60, 9-(5-chloro-2-methylphenyl)-2-methoxy-7-methylimidazo[5,1-c]pyrido[2,3-e][1,2,4]triazine] | 0.106 | 0.008
COc1ccc2nnc3c(C)nc(-c4ccc(C)cc4Cl)n3c2n1 [Example 61, 9-(2-chloro-4-methylphenyl)-2-methoxy-7-methylimidazo[5,1-c]pyrido[2,3-e][1,2,4]triazine] | 0.0216 | 0.00754
COc1ccc2nnc3c(C)nc(-c4cc(F)ccc4Cl)n3c2n1 [Example 62, 9-(2-chloro-5-fluorophenyl)-2-methoxy-7-methylimidazo[5,1-c]pyrido[2,3-e][1,2,4]triazine] | 0.0212 | 0.00532
COc1ccc2nnc3c(C)nc(-c4cccc(C)c4F)n3c2n1 [Example 63, 9-(2-fluoro-3-methylphenyl)-2-methoxy-7-methylimidazo[5,1-c]pyrido[2,3-e][1,2,4]triazine] | 0.0868 | 0.0552
COc1ccc2nnc3c(C)nc(-c4ccncc4C)n3c2n1 [Example 64, 2-methoxy-7-methyl-9-(3-methylpyridin-4-yl)imidazo[5,1-c]pyrido[2,3-e][1,2,4]triazine] | 0.0856 | 0.0562
COc1ccc2nnc3c(C)nc(-c4c(C)nn(C)c4C)n3c2n1 [Example 65, 2-methoxy-7-methyl-9-(1,3,5-trimethyl-1H-pyrazol-4-yl)imidazo[5,1-c]pyrido[2,3-e][1,2,4]triazine] | 0.12 | 0.0229
COc1ccc2nnc3c(C)nc(-c4ccc(F)nc4C)n3c2n1 [Example 66, 9-(6-fluoro-2-methylpyridin-3-yl)-2-methoxy-7-methylimidazo[5,1-c]pyrido[2,3-e][1,2,4]triazine] | 0.225 | 0.049
COc1ccc2nnc3c(C)nc(-c4cnc(F)c(C)c4)n3c2n1 [Example 67, 9-(6-fluoro-5-methylpyridin-3-yl)-2-methoxy-7-methylimidazo[5,1-c]pyrido[2,3-e][1,2,4]triazine] | 0.226 | 0.0556
COc1ccc2nnc3c(C)nc(-c4ccc(C)cc4F)n3c2n1 [Example 69, 9-(2-fluoro-4-methylphenyl)-2-methoxy-7-methylimidazo[5,1-c]pyrido[2,3-e][1,2,4]triazine] | 0.0499 | 0.0483
COc1ccc2nnc3c(C)nc(-c4ccccc4OC)n3c2n1 [Example 70, 2-methoxy-9-(2-methoxyphenyl)-7-methylimidazo[5,1-c]pyrido[2,3-e][1,2,4]triazine] | 0.0834 | 0.108
COc1ccc2nnc3c(C)nc(-c4cc(C)ccc4Cl)n3c2n1 [Example 71, 9-(2-chloro-5-methylphenyl)-2-methoxy-7-methylimidazo[5,1-c]pyrido[2,3-e][1,2,4]triazine] | 0.0379 | 0.00437
COc1ccc2nnc3c(C)nc(-c4cc(C(F)(F)F)ccc4Cl)n3c2n1 [Example 72, 9-(2-chloro-5-(trifluoromethyl)phenyl)-2-methoxy-7-methylimidazo[5,1-c]pyrido[2,3-e][1,2,4]triazine] | 0.282 | 0.0249
COc1ccc2nnc3c(C)nc(-c4cc(F)ccc4C)n3c2n1 [Example 73, 9-(5-fluoro-2-methylphenyl)-2-methoxy-7-methylimidazo[5,1-c]pyrido[2,3-e][1,2,4]triazine] | 0.038 | 0.0243
CCOc1ccc(Cl)c(-c2nc(C)c3nnc4ccc(OC)nc4n23)c1 [Example 74, 9-(2-chloro-5-ethoxyphenyl)-2-methoxy-7-methylimidazo[5,1-c]pyrido[2,3-e][1,2,4]triazine] | 0.0879 | 0.0101
COc1ccc2nnc3c(C)nc(-c4ccc(F)cc4Cl)n3c2n1 [Example 75, 9-(2-chloro-4-fluorophenyl)-2-methoxy-7-methylimidazo[5,1-c]pyrido[2,3-e][1,2,4]triazine] | 0.0131 | 0.0118
COc1ccc2nnc3c(C)nc(-c4cc(OC(F)(F)F)ccc4Cl)n3c2n1 [Example 76, 9-(2-chloro-5-(trifluoromethoxy)phenyl)-2-methoxy-7-methylimidazo[5,1-c]pyrido[2,3-e][1,2,4]triazine] | 0.149 | 0.0106
COc1ccc2nnc3c(C)nc(-c4cscc4C)n3c2n1 [Example 77, 2-methoxy-7-methyl-9-(4-methylthiophen-3-yl)imidazo[5,1-c]pyrido[2,3-e][1,2,4]triazine] | 0.0436 | 0.0512
COc1ccc2nnc3c(C)nc(-c4ccoc4)n3c2n1 [Example 78, 9-furan-3-yl-2-methoxy-7-methylimidazo[5,1-c]pyrido[2,3-e][1,2,4]triazine] | 0.482 | 1.39

From patent US20100120762A1, “Triazine derivatives as inhibitors of phosphodiesterases” (WYETH, priority 2008, published 2010)
